Assay results taken from PubChem BioAssay AID192 (DTP/NCI, 2004).
Values joined by “and” are separate entries in the source; they are usually repeats but may differ in a detail not shown here. Identical values can stand only once. Inconclusive results and toxic doses are left out.

Tested on: BDF1 mice, B16 melanoma ip, median survival T/C
Assay: NCI In Vivo Anticancer Drug Screen. Data for tumor model B16 Melanoma (intraperitoneal) in B6D2F1 (BDF1) mice
Conditions: endpoint: median survival time, higher = longer survival
How it was run: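 Transplantable tumor model; survival or tumor size measured; reported as T/C, treated over vehicle control.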

[1] = dose: 50.0 mg/kg/injection, schedule: Q01DX009 (ip), vehicle: saline with Tween-80
[2] = dose: 100.0 mg/kg/injection, schedule: Q01DX009 (ip), vehicle: saline with Tween-80
[3] = dose: 6.25 mg/kg/injection, schedule: Q01DX009 (ip), vehicle: Klucel (hydroxypropylcellulose) (HPC)
[4] = dose: 12.5 mg/kg/injection, schedule: Q01DX009 (ip), vehicle: Klucel (hydroxypropylcellulose) (HPC)
[5] = dose: 25.0 mg/kg/injection, schedule: Q01DX009 (ip), vehicle: Klucel (hydroxypropylcellulose) (HPC)
[6] = dose: 50.0 mg/kg/injection, schedule: Q01DX009 (ip), vehicle: Klucel (hydroxypropylcellulose) (HPC)
[7] = dose: 6.25 mg/kg/injection, schedule: Q01DX009 (ip), vehicle: saline with Tween-80
[8] = dose: 12.5 mg/kg/injection, schedule: Q01DX009 (ip), vehicle: saline with Tween-80
[9] = dose: 25.0 mg/kg/injection, schedule: Q01DX009 (ip), vehicle: saline with Tween-80
[10] = dose: 200.0 mg/kg/injection, schedule: Q01DX009 (ip), vehicle: saline with Tween-80
[11] = dose: 400.0 mg/kg/injection, schedule: Q01DX009 (ip), vehicle: saline with Tween-80
[12] = dose: 800.0 mg/kg/injection, schedule: Q01DX009 (ip), vehicle: saline with Tween-80
[13] = dose: 100.0 mg/kg/injection, schedule: Q01DX009 (ip), vehicle: Klucel (hydroxypropylcellulose) (HPC)
[14] = dose: 200.0 mg/kg/injection, schedule: Q01DX009 (ip), vehicle: Klucel (hydroxypropylcellulose) (HPC)
[15] = dose: 3.12 mg/kg/injection, schedule: Q01DX009 (ip), vehicle: Klucel (hydroxypropylcellulose) (HPC)
[16] = dose: 400.0 mg/kg/injection, schedule: Q01DX009 (ip), vehicle: Klucel (hydroxypropylcellulose) (HPC)

[N-]=[N+]=C1N=CN=C1c1ncn[nH]1
T/C (dose: 3.12 mg/kg/injection, schedule: Q01DX009 (ip), vehicle: carboxymethylcellulose (CMC)): 107 % of control | T/C (dose: 6.25 mg/kg/injection, schedule: Q01DX009 (ip), vehicle: carboxymethylcellulose (CMC)): 119 % of control

O=C1C=CC2(CCC23C=CC(=O)O3)O1 (stereo not given)
T/C (dose: 7.5 mg/kg/injection, schedule: Q01DX009 (ip), vehicle: Klucel (hydroxypropylcellulose) (HPC)): 87 % of control | T/C (dose: 15.0 mg/kg/injection, schedule: Q01DX009 (ip), vehicle: Klucel (hydroxypropylcellulose) (HPC)): 93 % of control | T/C (dose: 30.0 mg/kg/injection, schedule: Q01DX009 (ip), vehicle: Klucel (hydroxypropylcellulose) (HPC)): 92 % of control

O=C(NC(Cc1ccccc1)C(=O)O)c1ccccc1 (stereo not given)
T/C [1]: 90 % of control | T/C [2]: 96 % of control

O=C1C(Cl)=C(c2ccccc2)C(=O)C(Cl)=C1c1ccccc1
T/C [3]: 114 % of control | T/C [4]: 106 % of control | T/C [5]: 87 % of control | T/C [6]: 94 % of control

C[Si](C)(C)c1cc(F)c(F)c(F)c1F
T/C (dose: 100.0 mg/kg/injection, schedule: Q04DX003 (ip), vehicle: Klucel (hydroxypropylcellulose) (HPC)): 90 % of control | T/C (dose: 200.0 mg/kg/injection, schedule: Q04DX003 (ip), vehicle: Klucel (hydroxypropylcellulose) (HPC)): 92 % of control | T/C (dose: 400.0 mg/kg/injection, schedule: Q04DX003 (ip), vehicle: Klucel (hydroxypropylcellulose) (HPC)): 94 % of control

COc1cccc2c1C(=O)c1c(O)c3c(c(O)c1C2=O)C[C@@](O)(/C(C)=N\NC=O)C[C@@H]3OC1CC(N)C(O)C(C)O1 (stereo not given in full)
T/C (dose: 0.38 mg/kg/injection, schedule: Q01DX009 (ip), vehicle: saline): 112 % of control | T/C (dose: 0.75 mg/kg/injection, schedule: Q01DX009 (ip), vehicle: saline): 117 % of control | T/C (dose: 1.5 mg/kg/injection, schedule: Q01DX009 (ip), vehicle: saline): 150 % of control | T/C (dose: 3.0 mg/kg/injection, schedule: Q01DX009 (ip), vehicle: saline): 174 % of control | T/C (dose: 6.0 mg/kg/injection, schedule: Q01DX009 (ip), vehicle: saline): 216 % of control | T/C (dose: 12.0 mg/kg/injection, schedule: Q01DX009 (ip), vehicle: saline): 211 % of control

O=[N+]([O-])c1cc([N+](=O)[O-])c(Br)cc1Cl
T/C (dose: 2.5 mg/kg/injection, schedule: Q01DX009 (ip), vehicle: saline with Tween-80): 92 % of control | T/C (dose: 5.0 mg/kg/injection, schedule: Q01DX009 (ip), vehicle: saline with Tween-80): 98 % of control | T/C (dose: 10.0 mg/kg/injection, schedule: Q01DX009 (ip), vehicle: saline with Tween-80): 87 % of control | T/C (dose: 20.0 mg/kg/injection, schedule: Q01DX009 (ip), vehicle: Klucel (hydroxypropylcellulose) (HPC)): 94 % of control

CN(C)c1ccc(C(=O)c2ccc(N(C)C)cc2)cc1
T/C (dose: 100.0 mg/kg/injection, schedule: Q04DX003 (ip), vehicle: saline): 104 % of control | T/C (dose: 200.0 mg/kg/injection, schedule: Q04DX003 (ip), vehicle: saline): 111 % of control | T/C (dose: 400.0 mg/kg/injection, schedule: Q04DX003 (ip), vehicle: saline): 100 % of control

Cc1ccc(S(=O)(=O)Nc2c([N+](=O)[O-])cc([N+](=O)[O-])c3ccccc23)cc1
T/C [7]: 107 % of control | T/C [8]: 100 % of control | T/C [9]: 112 % of control

CCCCOC(=O)c1ccc(NC(=O)Nc2ccccc2Cl)cc1
T/C [8]: 102 % of control | T/C [9]: 102 % of control | T/C [1]: 88 % of control and 100 % of control

Cc1ccc(NS(=O)(=O)c2ccc(Cl)cc2)cc1Cl
T/C [9]: 99 % of control | T/C [1]: 99 % of control | T/C [2]: 95 % of control

O=c1c(O)c(-c2ccccc2)oc2ccccc12
T/C [2]: 94 % of control | T/C [10]: 96 % of control | T/C [11]: 91 % of control | T/C [12]: 93 % of control

Cc1cnc2c(=N)n(C(=O)C(F)(F)F)n(C)c2n1
T/C [13]: 90 % of control | T/C [14]: 94 % of control

C=CCNC(=S)Nc1ccc(C)cc1
T/C [6]: 100 % of control | T/C [13]: 93 % of control | T/C [14]: 90 % of control

CCCCn1c(O)c(C=N)c(=O)n(CCCC)c1=O
T/C (dose: 3.12 mg/kg/injection, schedule: Q01DX009 (ip), vehicle: saline with Tween-80): 109 % of control | T/C [7]: 97 % of control

O=C(O)CN(CCN(CC(=O)O)CC(=O)O)CCN(CC(=O)O)CC(=O)O
T/C [15]: 94 % of control | T/C [3]: 93 % of control and 94 % of control | T/C [4]: 102 % of control | T/C [5]: 96 % of control | T/C [6]: 88 % of control | T/C [14]: 92 % of control

CNC(=O)OCc1c(COC(=O)NC)c(C)n(-c2ccc(OC)cc2)c1C
T/C [15]: 113 % of control | T/C [3]: 111 % of control

O=C(N[C@H](CO)[C@H](O)c1ccc([N+](=O)[O-])cc1)C(Cl)Cl
T/C [1]: 100 % of control | T/C [2]: 99 % of control | T/C [10]: 88 % of control | T/C [11]: 88 % of control | T/C [12]: 87 % of control

CC(COC(=O)c1ccccc1)(COC(=O)c1ccccc1)COC(=O)c1ccccc1
T/C [13]: 110 % of control | T/C [14]: 107 % of control | T/C [16]: 100 % of control

COC(=O)/C=C/N1C(=O)c2ccccc2C1=O
T/C [13]: 91 % of control | T/C (dose: 135.0 mg/kg/injection, schedule: Q01DX009 (ip), vehicle: Klucel (hydroxypropylcellulose) (HPC)): 90 % of control | T/C [14]: 95 % of control | T/C (dose: 300.0 mg/kg/injection, schedule: Q01DX009 (ip), vehicle: Klucel (hydroxypropylcellulose) (HPC)): 95 % of control | T/C [16]: 91 % of control

CC(=O)Nc1ccc(C#N)c2ccccc12
T/C [13]: 124 % of control | T/C [14]: 111 % of control | T/C [16]: 111 % of control

CN(C)/C=C(/C#N)C(=O)N1CCCC1
T/C (dose: 37.5 mg/kg/injection, schedule: Q04DX003 (ip), vehicle: saline): 95 % of control | T/C (dose: 75.0 mg/kg/injection, schedule: Q04DX003 (ip), vehicle: saline): 88 % of control | T/C (dose: 150.0 mg/kg/injection, schedule: Q04DX003 (ip), vehicle: saline): 100 % of control

CCCCNC(C)(C)C(SSSC(c1ccc(Cl)cc1)C(C)(C)NCCCC)c1ccc(Cl)cc1 (stereo not given)
T/C [4]: 97 % of control | T/C [5]: 89 % of control

CCC/C(C)=C(/C#N)CC
T/C [5]: 105 % of control | T/C [6]: 103 % of control | T/C [13]: 109 % of control

O=C(O)C(=O)O.O=C(O)C(=O)O.OO.OO.[Nb]
T/C (dose: 3.13 mg/kg/injection, schedule: Q01DX009 (ip), vehicle: water): 100 % of control | T/C (dose: 6.25 mg/kg/injection, schedule: Q01DX009 (ip), vehicle: water): 101 % of control | T/C (dose: 12.5 mg/kg/injection, schedule: Q01DX009 (ip), vehicle: water): 103 % of control | T/C (dose: 25.0 mg/kg/injection, schedule: Q01DX009 (ip), vehicle: water): 112 % of control | T/C (dose: 50.0 mg/kg/injection, schedule: Q01DX009 (ip), vehicle: water): 96 % of control

CCCC[S+](CCCC)CC(=O)c1ccc(-c2ccccc2)cc1
T/C (dose: 1.56 mg/kg/injection, schedule: Q01DX009 (ip), vehicle: saline): 110 % of control | T/C (dose: 3.13 mg/kg/injection, schedule: Q01DX009 (ip), vehicle: saline): 96 % of control | T/C (dose: 6.25 mg/kg/injection, schedule: Q01DX009 (ip), vehicle: saline): 95 % of control | T/C (dose: 12.5 mg/kg/injection, schedule: Q01DX009 (ip), vehicle: saline): 94 % of control | T/C (dose: 25.0 mg/kg/injection, schedule: Q01DX009 (ip), vehicle: saline): 105 % of control

COc1cc2c(c3c1c(=O)c1ccccc1n3C)C=CC(C)(C)O2
T/C [9]: 102 % of control | T/C [1]: 107 % of control

NC(=S)N/N=C/c1cccc(CC(O)(C(F)(F)F)C(F)(F)F)n1
T/C [7]: 95 % of control | T/C (dose: 6.25 mg/kg/injection, schedule: Q04DX003 (ip), vehicle: saline with Tween-80): 116 % of control | T/C [8]: 90 % of control | T/C (dose: 12.5 mg/kg/injection, schedule: Q04DX003 (ip), vehicle: saline with Tween-80): 116 % of control | T/C [9]: 88 % of control | T/C (dose: 25.0 mg/kg/injection, schedule: Q04DX003 (ip), vehicle: saline with Tween-80): 100 % of control

CC(C)CC(NC(=O)C(O)C(N)Cc1ccccc1)C(=O)O (stereo not given)
T/C (dose: 0.05 mg/kg/injection, schedule: Q01DX009 (oral), vehicle: saline): 97 % of control | T/C (dose: 0.5 mg/kg/injection, schedule: Q01DX009 (oral), vehicle: saline): 97 % of control | T/C (dose: 5.0 mg/kg/injection, schedule: Q01DX009 (oral), vehicle: saline): 96 % of control
